Values quoted from earlier work in US8337481B2, “Method for treating otitis externa” (priority 2005, dated 2012).

Q: Which “Biological Half Life” value does the source give for `C[C@H]1C[C@@H]2[C@H]([C@@H](O)C[C@@]3(C)[C@H]2CC[C@]3(O)C(=O)CO)[C@@]2(C)C=CC(=O)C=C12` [Methyl-prednisolone, methylprednisolone] here?
A: 18-36 Hours

Q: Which “Biological Half Life” value does the source give for `C[C@]12CCC(=O)C=C1CC[C@@H]1[C@@H]2[C@@H](O)C[C@@]2(C)[C@H]1CC[C@]2(O)C(=O)CO` [hydrocortisone] here?
A: 8-12 Hours

Q: With `C[C@]12C=CC(=O)C=C1CC[C@@H]1[C@@H]2[C@@H](O)C[C@@]2(C)[C@H]1CC[C@]2(O)C(=O)CO` [prednisolone] as the compound, how does the “Biological Half Life” value read?
A: 18-36 Hours

Q: Which “Biological Half Life” value does the source give for `C[C@]12C=CC(=O)C=C1CC[C@H]1[C@@H]3C[C@@H](O)[C@](O)(C(=O)CO)[C@@]3(C)C[C@H](O)[C@@]12F` [triamcinolone] here?
A: 18-36 Hours
